Assay results: patent US12492186B2, “Bicyclic heterocyclic compounds useful as IRAK4 inhibitors” (BRISTOL-MYERS SQUIBB COMPANY, priority 2019, dated 2025)

Molecular target: IRAK4 (Homo sapiens (Human), UniProt Q9NWZ3)
Experiment: IRAK4 Inhibition Assay
Format: biochemical
Conditions: ATP 500 μM; IRAK4 0.6 nM; 60 min room temperature; Caliper LABCHIP 3000
Protocol: The assays were performed in U-bottom 384-well plates. The final assay volume was 30 μL prepared from 15 μL additions of enzyme and substrates (fluoresceinated peptide and ATP) and test compounds in assay buffer (20 mM HEPES pH 7.2, 10 mM MgCl2, 0.015% Brij 35 and 4 mM DTT). The reaction was initiated by the combination of IRAK4 with substrates and test compounds. The reaction mixture was incubated at room temperature for 60 min. and terminated by adding 45 μL of 35 mM EDTA to each sample. The reaction mixture was analyzed on the Caliper LABCHIP® 3000 (Caliper, Hopkinton, MA) by electrophoretic separation of the fluorescent substrate and phosphorylated product. Inhibition data were calculated by comparison to no enzyme control reactions for 100% inhibition and vehicle-only reactions for 0% inhibition. The final concentrations of reagents in the assays are ATP, 500 μM; FL-IPTSPITTTYFFFKKK peptide 1.5 μM; IRAK4, 0.6 nM; and DMSO, 1.6%.

Sequence of IRAK4 (Q9NWZ3 whole entry, species assumed): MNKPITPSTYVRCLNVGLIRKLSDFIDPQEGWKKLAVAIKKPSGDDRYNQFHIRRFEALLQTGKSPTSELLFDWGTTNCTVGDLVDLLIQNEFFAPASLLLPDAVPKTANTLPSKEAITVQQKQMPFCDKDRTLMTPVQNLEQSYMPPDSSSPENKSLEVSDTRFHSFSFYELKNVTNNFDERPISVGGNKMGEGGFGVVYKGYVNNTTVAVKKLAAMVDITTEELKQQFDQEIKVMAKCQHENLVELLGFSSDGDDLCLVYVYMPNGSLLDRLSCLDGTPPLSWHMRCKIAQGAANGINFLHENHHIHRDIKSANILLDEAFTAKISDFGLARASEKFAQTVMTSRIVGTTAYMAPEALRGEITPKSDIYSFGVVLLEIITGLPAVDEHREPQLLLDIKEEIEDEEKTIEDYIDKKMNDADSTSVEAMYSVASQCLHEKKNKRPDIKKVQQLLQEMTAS

Structure (SMILES): COC(=O)NC1CC(NC(=O)c2cnc3ccc(-c4cn[nH]c4)cc3c2NC2CC(F)(F)C2)C1 (centres unmarked) [Example 58, methyl ((1r,3r)-3-(4-((3,3-difluorocyclobutyl)amino)-6-(1H-pyrazol-4-yl)quinoline-3-carboxamido)cyclobutyl)carbamate]
- IC50: 29.9 nM

Structure (SMILES): CC(C)Nc1c(C(=O)N[C@H]2C[C@H](O)C2)cnc2ccc(-c3cn[nH]c3)cc12 [Example 60, N-((1r,3r)-3-hydroxycyclobutyl)-4-(isopropylamino)-6-(1H-pyrazol-4-yl)quinoline-3-carboxamide]
- IC50: 38 nM

Structure (SMILES): Cc1cc2ncc(C(=O)NCCC(C)(C)O)c(NC(C)C)c2cc1-c1cncs1 [Example 61, N-(3-hydroxy-3-methylbutyl)-4-(isopropylamino)-7-methyl-6-(thiazol-5-yl)quinoline-3-carboxamide]
- IC50: 231 nM

Structure (SMILES): CC(C)(O)CCNC(=O)c1cnc2ccc(-c3cn[nH]c3)cc2c1NCC(F)F [Example 62, 4-((2,2-difluoroethyl)amino)-N-(3-hydroxy-3-methylbutyl)-6-(1H-pyrazol-4-yl)quinoline-3-carboxamide]
- IC50: 22.3 nM

Structure (SMILES): O=C(NCCN1CCOCC1)c1cnc2ccc(-c3cn[nH]c3)cc2c1NCC(F)F [Example 63, 4-((2,2-difluoroethyl)amino)-N-(2-morpholinoethyl)-6-(1H-pyrazol-4-yl)quinoline-3-carboxamide]
- IC50: 34.4 nM

Structure (SMILES): CC(O)CCNC(=O)c1cnc2ccc(-c3cn[nH]c3)cc2c1NCC(F)F (centres unmarked) [Example 64, 4-((2,2-difluoroethyl)amino)-N-(3-hydroxybutyl)-6-(1H-pyrazol-4-yl)quinoline-3-carboxamide]
- IC50: 28 nM

Structure (SMILES): CNC(=O)CCNC(=O)c1cnc2ccc(-c3cn[nH]c3)cc2c1NCC(F)F [Example 66, 4-((2,2-difluoroethyl)amino)-N-(3-(methylamino)-3-oxopropyl)-6-(1H-pyrazol-4-yl)quinoline-3-carboxamide]
- IC50: 60.7 nM

Structure (SMILES): O=C(NCCC(F)F)c1cnc2ccc(-c3cn[nH]c3)cc2c1NCC(F)F [Example 67, 4-((2,2-difluoroethyl)amino)-N-(3,3-difluoropropyl)-6-(1H-pyrazol-4-yl)quinoline-3-carboxamide]
- IC50: 22.9 nM

Structure (SMILES): O=C(NCCC(F)(F)F)c1cnc2ccc(-c3cn[nH]c3)cc2c1NCC(F)F [Example 68, 4-((2,2-difluoroethyl)amino)-6-(1H-pyrazol-4-yl)-N-(3,3,3-trifluoropropyl)quinoline-3-carboxamide]
- IC50: 35.1 nM

Structure (SMILES): CC(C)Nc1c(C(=O)NCCC(C)(C)O)cnc2ccc(-c3ccc(C#N)nc3)cc12 [Example 69, 6-(6-cyanopyridin-3-yl)-N-(3-hydroxy-3-methylbutyl)-4-(isopropylamino)quinoline-3-carboxamide]
- IC50: 131 nM

Structure (SMILES): CC(C)Nc1c(C(=O)NCCC(C)(C)O)cnc2ccc(-c3ccc(F)nc3)cc12 [Example 70, 6-(6-fluoropyridin-3-yl)-N-(3-hydroxy-3-methylbutyl)-4-(isopropylamino)quinoline-3-carboxamide]
- IC50: 119 nM

Structure (SMILES): Cc1cc(-c2ccc3ncc(C(=O)NCCC(C)(C)O)c(NC(C)C)c3c2)cnc1F [Example 71, 6-(6-fluoro-5-methylpyridin-3-yl)-N-(3-hydroxy-3-methylbutyl)-4-(isopropylamino)quinoline-3-carboxamide]
- IC50: 307 nM

Structure (SMILES): CC(C)Nc1c(C(=O)NCCC(C)(C)O)cnc2ccc(-c3cncc(F)c3)cc12 [Example 72, 6-(5-fluoropyridin-3-yl)-N-(3-hydroxy-3-methylbutyl)-4-(isopropylamino)quinoline-3-carboxamide]
- IC50: 176 nM

Structure (SMILES): CC(C)Nc1c(C(=O)NCCC(C)(C)O)cnc2ccc(-c3ccc(F)nc3F)cc12 [Example 73, 6-(2,6-difluoropyridin-3-yl)-N-(3-hydroxy-3-methylbutyl)-4-(isopropylamino)quinoline-3-carboxamide]
- IC50: 51.2 nM

Structure (SMILES): CC(C)Nc1c(C(=O)NCCC(C)(C)O)cnc2ccc(-c3ccc(=O)[nH]c3)cc12 [Example 74, N-(3-hydroxy-3-methylbutyl)-4-(isopropylamino)-6-(6-oxo-1,6-dihydropyridin-3-yl)quinoline-3-carboxamide]
- IC50: 124 nM

Structure (SMILES): O=C(NCCC1CC1)c1cnc2ccc(-c3cn[nH]c3)cc2c1NCC(F)F [Example 75, N-(2-cyclopropylethyl)-4-((2,2-difluoroethyl)amino)-6-(1H-pyrazol-4-yl)quinoline-3-carboxamide]
- IC50: 20.1 nM

Structure (SMILES): CC(C)Nc1c(C(=O)NC2CCN(C(=O)CC(F)(F)F)CC2)cnc2ccc(-c3cn[nH]c3)cc12 [Example 83, 4-(isopropylamino)-6-(1H-pyrazol-4-yl)-N-(1-(3,3,3-trifluoropropanoyl)piperidin-4-yl)quinoline-3-carboxamide]
- IC50: 24.5 nM

Structure (SMILES): CC(=O)N1CCCC1CCNC(=O)c1cnc2ccc(-c3cn[nH]c3)cc2c1NC(C)C (centres unmarked) [Example 85, N-(2-(1-acetylpyrrolidin-2-yl)ethyl)-4-(isopropylamino)-6-(1H-pyrazol-4-yl) quinoline-3-carboxamide]
- IC50: 20.7 nM

Structure (SMILES): CC(C)Nc1c(C(=O)NCCN2CCCCC2=O)cnc2ccc(-c3cn[nH]c3)cc12 [Example 86, 4-(isopropylamino)-N-(2-(2-oxopiperidin-1-yl)ethyl)-6-(1H-pyrazol-4-yl)quinoline-3-carboxamide]
- IC50: 28.6 nM

Structure (SMILES): CC(C)Nc1c(C(=O)NC2CCN(S(=O)(=O)CCC(F)(F)F)CC2)cnc2ccc(-c3cn[nH]c3)cc12 [Example 89, 4-(isopropylamino)-6-(1H-pyrazol-4-yl)-N-(1-((3,3,3-trifluoropropyl)sulfonyl)piperidin-4-yl)quinoline-3-carboxamide]
- IC50: 32.8 nM

Structure (SMILES): CC(C)Nc1c(C(=O)NCC(=O)N2CCOCC2)cnc2ccc(-c3cn[nH]c3)cc12 [Example 90, 4-(isopropylamino)-N-(2-morpholino-2-oxoethyl)-6-(1H-pyrazol-4-yl)quinoline-3-carboxamide]
- IC50: 34.4 nM

Structure (SMILES): CC(C)Nc1c(C(=O)NC(C)(C)C(=O)N2CCOCC2)cnc2ccc(-c3cn[nH]c3)cc12 [Example 91, 4-(isopropylamino)-N-(2-methyl-1-morpholino-1-oxopropan-2-yl)-6-(1H-pyrazol-4-yl) quinoline-3-carboxamide]
- IC50: 1810 nM

Structure (SMILES): CC(C)Nc1c(C(=O)NC2CN(S(C)(=O)=O)C2)cnc2ccc(-c3cn[nH]c3)cc12 [Example 92, 4-(isopropylamino)-N-(1-(methylsulfonyl)azetidin-3-yl)-6-(1H-pyrazol-4-yl)quinoline-3-carboxamide]
- IC50: 32.2 nM

Structure (SMILES): CC(C)Nc1c(C(=O)NCCC2CCCN2C(=O)C2CC2)cnc2ccc(-c3cn[nH]c3)cc12 (centres unmarked) [Example 93, N-(2-(1-(cyclopropanecarbonyl)pyrrolidin-2-yl)ethyl)-4-(isopropylamino)-6-(1H-pyrazol-4-yl)quinoline-3-carboxamide]
- IC50: 29.3 nM

Structure (SMILES): CC(C)(O)CCNc1c(C(N)=O)cnc2ccc(-c3cn[nH]c3)cc12 [Example 99, 4-((3-hydroxy-3-methylbutyl)amino)-6-(1H-pyrazol-4-yl)quinoline-3-carboxamide]
- IC50: 264 nM

Structure (SMILES): CC(C)Nc1c(C(=O)Nc2ccc(N3CCOCC3)nc2)cnc2ccc(-c3cn[nH]c3)cc12 [Example 100, 4-(isopropylamino)-N-(6-morpholinopyridin-3-yl)-6-(1H-pyrazol-4-yl)quinoline-3-carboxamide]
- IC50: 4.5 nM
